Measured values taken from US9308253B2, “Cancer immunotherapy” (The Johns Hopkins University, priority 2011, dated 2016).

Legend:
TLR4 = details: cited from earlier work
B16 melanoma = assay: Tumor treatment assay, palpable B16 model; assay type: in vivo, C57BL/6 mice; details: palpable B16, single subcutaneous treatment in contralateral limb
Experimental: IDC-1005 was incubated with irradiated GVAX cells at 4 deg C. for 0.5-2, hours prior to inoculation. GVAX formulated with IDC-1005 is labeled as TEGVAX.
Tumor treatment assay: C57BL/6 mice were injected with 1-5×10^4 B16 in the footpads. Once palpable tumor developed (5-10 days), 100 μl of 10^6 B16 GVAX formulated with or without IDC-1005 were injected subcutaneously into the contralateral limb. The control groups were injected with vehicle. For all these experiments, 10 mice were used per group. […] For all the vaccines, GM-CSF was titered to ensure that GM-CSF expression level ranged from 50-500 ng/10^6 Cells/24 hours. Tumor was measured daily.

[1] = human, in vivo; cited from earlier work

Compound | TH1 type cytokines on activation of dendritic cells (TLR4; murine and human dendritic cells, in vivo and in vitro, versus MPL) | TLR4 agonist strength (TLR4; versus monophosphoryl lipid A) | tumor growth rate / in vivo anti-tumor response (B16 melanoma) | safety / toxicity in patients [1]
CCCCCCCCCCCCCC(=O)O[C@H](CCCCCCCCCCC)CC(=O)O[C@@H]1[C@@H](NC(=O)C[C@H](CCCCCCCCCCC)OC(=O)CCCCCCCCCCCCC)[C@H](OC[C@H]2O[C@H](O)[C@H](NC(=O)C[C@H](O)CCCCCCCCCCC)[C@@H](OC(=O)C[C@H](O)CCCCCCCCCCC)[C@@H]2O)O[C@H](CO)[C@H]1OP(=O)(O)O [GLA, glucopyranosyl lipid A] | more potent in terms of increasing multiple TH1 type cytokines | stronger TLR4 agonist than the monophosphyl lipid A | no in vivo anti-tumor effects | –
CCOCc1nc2c(N)nc3ccccc3c2n1CC(C)(C)O [R848, resiquimod] | – | – | – | passed phase 1 trials for safety
ipilimumab: anti-CTLA-4 antibody | – | – | – | grade 3-4 toxicity
